Patent publication US8912121B2, “Herbicidal compositions comprising 4-amino-3-chloro-5-fluoro-6-(4-chloro-2-fluoro-3-methoxyphenyl)pyridine-2-carboxylic acid or a derivative thereof and certain PS II inhibitors” (Dow Agrosciences LLC, priority 2012, dated 2014)
Read-outs that look alike come from different tables or passages of the source.

What was measured:
[1] = tested on: COMBE (Commelina benghalensis, Benghal dayflower); test: Postemergence foliar-applied mixtures, direct seeded rice, greenhouse; type: in vivo, Commelina benghalensis L.; conditions: 280 g ai/ha; 20 DAA
Excerpt: (§1) Seeds or nutlets of the desired test plant species were planted in a soil matrix prepared by mixing a loam or sandy loam soil (e.g., 28.6 percent silt, 18.8 percent clay, and 52.6 percent sand, with a pH of about 5.8 and an organic matter content of about 1.8 percent) and calcareous grit in an 80 to 20 ratio. The soil matrix was contained in plastic pots with a volume of 1 quart and a surface area of 83.6 square centimeters (cm^2). When required to ensure good germination and healthy plants, a fungicide treatment and/or other chemical or physical treatment was applied. The plants were grown for 8-22 days in a greenhouse with an approximate 14 h photoperiod which was maintained at about 29° C. during the day and 26° C. during the night. Nutrients (Peters Excel® 15-5-15 5-Ca 2-Mg and iron chelate) were applied in the irrigation solution as needed and water was added on a regular basis. Supplemental lighting was provided with overhead metal halide 1000-Watt lamps as necessary. The plants were employed for testing when they reached the first through fourth true leaf stage. […]
(§2) Treatment requirements were calculated based upon the rates being tested, the concentration of active ingredient or acid equivalent in the formulation, and a 12 mL application volume at a rate of 187 L/ha.
(§3) For treatments comprised of formulated compounds, measured amounts of compounds were placed individually in 25 mL glass vials and diluted in a volume of 1.25% (v/v) Agri-Dex® crop oil concentrated to obtain 12× stock solutions. […]
(§4) For treatments comprised of formulated and technical compounds, weighed amounts of the technical materials were placed individually in 25 mL glass vials and dissolved in a volume of 97:3 v/v acetone/DMSO to obtain 12× stock solutions, and measured amounts of the formulated compounds were placed individually in 25 mL glass vials and diluted in a volume of 1.5% (v/v) crop oil concentrate or water to obtain 12× stock solutions. […]

[2] = tested on: ECHOR (Echinochloa oryzoides, early watergrass); test: In-water applied mixtures, transplanted paddy rice, greenhouse; type: in vivo, Echinochloa oryzoides (Ard.) Fritsch
Experimental: (§5) Weed seeds or nutlets of the desired test plant species were planted in puddled soil (mud) prepared by mixing a shredded, non-sterilized mineral soil (50.5 percent silt, 25.5 percent clay, and 24 percent sand, with a pH of about 7.6 and an organic matter content of about 2.9 percent) and water at a 1:1 volumetric ratio. The prepared mud was dispensed in 365 mL aliquots into 16-ounce (oz.) non-perforated plastic pots with a surface area of 86.59 square centimeters (cm^2) leaving a headspace of 3 centimeters (cm) in each pot Mud was allowed to dry overnight prior to planting or transplanting. Rice seeds were planted in Sun Gro MetroMix® 306 planting mixture, which typically has a pH of 6.0 to 6.8 and an organic matter content of about 30 percent, in plastic plug trays. Seedlings at the second or third leaf stage of growth were transplanted into 840 mL of mud contained in 32-oz. non-perforated plastic pots with a surface area of 86.59 cm^2 4 days prior to herbicide application. The paddy was created by filling the headspace of the pots with 2.5 to 3 cm of water. When required to ensure good germination and healthy plants, a fungicide treatment and/or other chemical or physical treatment was applied. The plants were grown for 4-22 days in a greenhouse with an approximate 14 h photoperiod which was maintained at about 29° C during the day and 26° C. during the night. Nutrients were added as Osmocote® (19:6:12, N:P:K+ minor nutrients) at 2 g per 16-oz. pot and 4 g per 32-oz. pot. Water was added on a regular basis to maintain the paddy flood, and supplemental lighting was provided with overhead metal halide 1000-Watt lamps as necessary. The plants were employed for testing when they reached the first through fourth true leaf stage.
(§6) Treatments consisted of the acid or esters of 4-amino-3-chloro-5-fluoro-6-(4-chloro-2-fluoro-3-methoxy-phenyl)pyridine-2-carboxylic acid (compound A) each formulated as an SC (suspension concentrate) and various herbicidal components alone and in combination. Forms of compound A were applied on an acid equivalent basis.
(§7) Other herbicidal components were applied on an active ingredient basis and included photosystem II (PSII)-inhibits propanil formulated as […] bentazon-sodium formulated as Basagran®, and simetryne (technical grade material).
(§8) Treatment requirements for each compound or herbicidal component were calculated based upon the rates being tested, the concentration of active ingredient or acid equivalent in the formulation, an application volume of 2 mL per component per pot, and an application area of 86.59 cm^2 per pot.
(§9) For formulated compounds, a measured amount was placed in an individual 100 or 200 mL glass vial and was dissolved in a volume of 1.25% (v/v) Agri-Dex® crop oil concentrate to obtain application solutions.
(§10) For technical grade compounds, a weighed amount was placed in an individual 100 to 200 mL glass vial and was dissolved in a volume of acetone to obtain concentrated stock solutions. […] The concentrated stock solutions obtained were diluted with an equivalent volume of an aqueous mixture containing 2.5% (v/v) crop oil concentrate so that the final application solutions contained 1.25% (v/v) crop oil concentrate.
(§11) Applications were made by injecting with a pipetter appropriate amounts of the application solutions, individually and sequentially, into the aqueous layer of the paddy. Control plants were treated in the same manner with the solvent blank. Applications were made so that all treated plant material received the same concentrations of acetone and crop oil concentrate.
(§12) The treated plants and control plants were placed in a greenhouse as described above and water was added as needed to maintain a paddy flood. After approximately 3 weeks the condition of the test plants as compared with that of the untreated plants was determined visually and scored on a scale of 0 to 100 percent where 0 corresponds to no injury or growth inhibition and 100 corresponds to complete kill. […]

[3] = tested on: IPOHE (Ipomoea hederacea, ivyleaf morningglory); test: Postemergence foliar-applied mixtures, direct seeded rice, greenhouse; type: in vivo, Ipomoea hederacea Jacq.; conditions: post-emergence, read-out: Visual Weed Control (%) Obs
Excerpt: (§13) Seeds or nutlets of the desired test plant species were planted in a soil matrix prepared by mixing a loam or sandy loam soil (e.g., 28.6 percent silt, 18.8 percent clay, and 52.6 percent sand, with a pH of about 5.8 and an organic matter content of about 1.8 percent) and calcareous grit in an 80 to 20 ratio. The soil matrix was contained in plastic pots with a volume of 1 quart and a surface area of 83.6 square centimeters (cm^2). When required to ensure good germination and healthy plants, a fungicide treatment and/or other chemical or physical treatment was applied. The plants were grown for 8-22 days in a greenhouse with an approximate 14 h photoperiod which was maintained at about 29° C. during the day and 26° C. during the night. Nutrients (Peters Excel® 15-5-15 5-Ca 2-Mg and iron chelate) were applied in the irrigation solution as needed and water was added on a regular basis. Supplemental lighting was provided with overhead metal halide 1000-Watt lamps as necessary. The plants were employed for testing when they reached the first through fourth true leaf stage.
(§14) Treatments consisted of the acid or esters of 4-amino-3-chloro-5-fluoro-6-(4-chloro-2-fluoro-3-methoxy-phenyl) pyridine-2-carboxylic acid (Compound A), each formulated as an SC (suspension concentrate), and various herbicidal components alone and in combination. Forms of compound A were applied on an acid equivalent basis.
(§15) Other herbicidal components were applied on an active ingredient basis and included Photosystem II (PSII)-inhibiting herbicides propanil formulated as Stam® M4 EC, bentazon-sodium formulated as Basagran®, atrazine formulated as Atrazine 90 WDG, bromoxynil octanoate ester formulated as Buctril®, simetryne (technical grade material), simazine formulated as Princep® Caliber 90, ioxynil (technical grade material), cyanazine (technical grade material), and hexazinone (technical grade material).
as §2
(§16) For treatments comprised of formulated compounds, measured amounts of compounds were placed individually in 25 mL glass vials and diluted in a volume of 1.25% (v/v) Agri-Dex® crop oil concentrated to obtain 12× stock solutions. […] Application solutions were prepared by adding an appropriate amount of each stock solution (e.g., 1 mL) and diluted to the appropriate final concentrations with the addition of 10 mL of an aqueous mixture of 1.25% (v/v) crop oil concentrate so that the final spray solutions contained 1.25+/−0.05% (v/v) crop oil concentrate.
(§17) For treatments comprised of technical compounds, weighed amounts can be placed individually in 25 mL glass vials and dissolved in a volume of 97:3 v/v acetone/DMSO to obtain 12× stock solutions. […] Application solutions can be prepared by adding an appropriate amount of each stock solution (e.g., 1 mL) and diluted to the appropriate final concentrations with the addition of 10 mL of an aqueous mixture of 1.5% (v/v) crop oil concentrate so that the final spray solutions contain 1.25% (v/v) crop oil concentrate. When technical materials are used, the concentrated stock solutions can be added to the spray solutions so that the final acetone and DMSO concentrations of the application solutions are 16.2% and 0.5%, respectively.
as §4

[4] = tested on: SCPMA (Schoenoplectus maritimus, sea clubrush); test: In-water applied mixtures, transplanted paddy rice, greenhouse; type: in vivo, Schoenoplectus maritimus (L.) Lye; conditions: 1120 g ae/ha; 20 DAA
Experimental: as §5, §6, §7, §8, §9, §10, §11, §12

[5] = tested on: LEFCH (Leptochloa chinensis, Chinese sprangletop); test: as above; type: in vivo, Leptochloa chinensis (L.) Nees
Experimental: as §5, §6, §7, §8, §9, §10, §11, §12

[6] = tested on: ECHCG (Echinochloa crusgalli, barnyardgrass); test: as above; type: in vivo, Echinochloa crusgalli (L.) Beauv.; conditions: 21 DAA
Experimental: as §5, with “stage. […]” for “stage.”
as §8
For formulated compounds, a measured amount was placed in an individual 100 or 200 mL glass vial and was dissolved in a volume of 1.25% (v/v) Agri-Dex® crop oil concentrate to obtain application solutions. […]
as §12

[7] = tested on: FIMMI (Fimbristylis miliacea, globe fringerush); test: as above; type: in vivo, Fimbristylis miliacea (L.) Vahl; conditions: 19 DAA
Experimental: as §5, §6, §7, §8, §9
For technical grade compounds, a weighed amount was placed in an individual 100 to 200 mL glass vial and was dissolved in a volume of acetone to obtain concentrated stock solutions. […]
as §12

[8] = tested on: ECHCO (Echinochloa colona, junglerice); test: Postemergence foliar-applied mixtures, direct seeded rice, greenhouse; type: in vivo, Echinochloa colona (L.) Link; conditions: 450 g ai/ha; 21 DAA
Excerpt: as §13, §14, §15, §2, §16, §17, §4

[9] = tested on: CYPRO (Cyperus rotundus, purple nutsedge); test: In-water applied mixtures, transplanted paddy rice, greenhouse; type: in vivo, Cyperus rotundus L.; conditions: 19 DAA
Experimental: as §5, §6, §7, §8, §9, §10, §11, §12

[10] = tested on: CYPIR (Cyperus iria, rice flatsedge); test: Postemergence foliar-applied mixtures, direct seeded rice, greenhouse; type: in vivo, Cyperus iria L.; conditions: 22 DAA
Excerpt: as §13, §14, §15, §2, §16, §17, §4

[11] = tested on: LEFCH (Leptochloa chinensis, Chinese sprangletop); test: as above; type: in vivo, Leptochloa chinensis (L.) Nees; conditions: 225 g ai/ha; 22 DAA
Excerpt: as §1, §2, §3, §4

## CC(C)N1C(=O)c2ccccc2NS1(=O)=O [Bentazon-sodium, 3-(1-methylethyl)-1H-2,1,3-benzothiadiazin-4(3H)-one 2,2-dioxide, reference compound]
[1]
  Visual Weed Control (%) Obs: 10%
[2]; 1120 g ae/ha, 20 DAA
  Visual Weed Control (%) Obs: 0%
[3]; 480 h, 840 g ae/ha, 20 DAA
  pest or weed control at 840 g/ha: 13%
[3]; 504 h, 105 g ai/ha, 21 DAA
  pest or weed control at 105 g/ha: 0%
[3]; 504 h, 210 g ai/ha, 21 DAA
  pest or weed control at 210 g/ha: 0%
[3]; 504 h, 420 g ai/ha, 21 DAA
  pest or weed control at 420 g/ha: 10%
[3]; 504 h, 840 g ai/ha, 21 DAA
  pest or weed control at 840 g/ha: 13%
[4]
  Visual Weed Control (%) Obs: 0%
[5]; 420 g ae/ha, 21 DAA
  Visual Weed Control (%) Obs: 0%
[5]; 840 g ae/ha, 21 DAA
  Visual Weed Control (%) Obs: 0%
[5]; 1120 g ae/ha, 20 DAA
  Visual Weed Control (%) Obs: 0%
[6]; 420 g ae/ha
  Visual Weed Control (%) Obs: 0%
[6]; 840 g ae/ha
  Visual Weed Control (%) Obs: 0%

## CCNc1nc(NCC)nc(SC)n1 [Simetryne, N,N′-diethyl-6-(methylthio)-1,3,5-triazine-2,4-diamine, reference compound]
[2]; 112.5 g ai/ha, 19 DAA
  Visual Weed Control (%) Obs: 0%
[2]; 225 g ai/ha, 19 DAA
  Visual Weed Control (%) Obs: 10%
[7]; 112.5 g ai/ha
  Visual Weed Control (%) Obs: 45%
[7]; 225 g ai/ha
  Visual Weed Control (%) Obs: 90%
[8]
  Visual Weed Control (%) Obs: 45%
[9]; 112.5 g ai/ha
  Visual Weed Control (%) Obs: 0%
[9]; 225 g ai/ha
  Visual Weed Control (%) Obs: 0%
[9]; 450 g ai/ha
  Visual Weed Control (%) Obs: 0%
[10]; 112.5 g ai/ha
  Visual Weed Control (%) Obs: 0%
[10]; 225 g ai/ha
  Visual Weed Control (%) Obs: 0%
[10]; 450 g ai/ha
  Visual Weed Control (%) Obs: 30%
[11]
  Visual Weed Control (%) Obs: 40%
